{"source": "patent US20250360057A1", "about": "“ENHANCING DENTIN BONDING DURABILITY USING QUATERNARY PYRIDINIUM SALTS” (ADA Science and Research Institute LLC, priority 2022, published 2025)", "format_in_all_cases": "physicochemical", "key": {"[1]": {"assay": "Degree of (vinyl) conversion (DC) of cured dental adhesive/resin by FT-IR (ATR)", "conditions": "for change of Degree of Conversion (in words) / increase of Degree of Conversion / decrease of Degree of Conversion: versus resin without additive; for change of Degree of Conversion (in words) / decrease of Degree of Conversion: Bis-GMA/TEGDMA resin; for Degree of Conversion (%): approx 0.25 wt % additive; for effect on DC (in words): both adhesives (SB and B6H4); for Degree of Conversion: resin 70 wt % Bis-GMA / 30 wt % TEGDMA with CQ/4E; for increase of Degree of Conversion: 70 wt % Bis-GMA / 30 wt % TEGDMA, CQ/4E"}, "[2]": {"target": "T1, pseudocholine esterase from equine serum (PCE) (Equus caballus, UniProt P81908)", "T1 construct": "pseudocholine esterase from equine serum; purchased Sigma C7512; host or cells: equine serum", "T1 sequence (P81908 whole entry)": "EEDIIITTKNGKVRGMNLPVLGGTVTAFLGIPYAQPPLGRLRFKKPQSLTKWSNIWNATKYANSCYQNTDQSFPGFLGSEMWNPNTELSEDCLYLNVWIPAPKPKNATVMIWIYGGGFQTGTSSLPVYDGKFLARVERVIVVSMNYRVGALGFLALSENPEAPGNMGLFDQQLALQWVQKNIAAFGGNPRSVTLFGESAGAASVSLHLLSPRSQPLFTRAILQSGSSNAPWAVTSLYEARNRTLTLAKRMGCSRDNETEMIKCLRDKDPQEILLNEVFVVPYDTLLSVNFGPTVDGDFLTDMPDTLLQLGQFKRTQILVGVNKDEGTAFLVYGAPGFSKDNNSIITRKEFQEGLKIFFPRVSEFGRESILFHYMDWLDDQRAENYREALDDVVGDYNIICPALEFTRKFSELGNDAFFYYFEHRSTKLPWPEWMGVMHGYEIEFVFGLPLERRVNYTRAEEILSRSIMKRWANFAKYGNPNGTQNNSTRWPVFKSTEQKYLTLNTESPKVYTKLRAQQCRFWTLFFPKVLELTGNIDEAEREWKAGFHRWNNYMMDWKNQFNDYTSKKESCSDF", "assay": "Biostability: AFM-based step height change (ΔH) under enzymatic challenge"}, "[3]": {"assay": "Glass transition temperature (Tg) / tan δ peak by dynamic mechanical analysis (DMA)", "description": "The degree of conversion (DC) and glass transition temperature (Tg) of adhesives and resins with or without the additives (such as Azo-QPS-C16) were measured by Fourier transform infrared (FTIR) spectrometer and dynamic mechanical analyzer (DMA), respectively. The stability against enzymatic challenges of four adhesives (and resins) was evaluated using an atomic force microscopy (AFM)-based method. The adhesives' bonding strength and bonding durability are determined and compared based on shear bond strength (SBS), micro-tensile bond strength (pTBS), and bonding durability under the challenges of thermal cycling.\nThe glass transition temperature (Tg) of adhesives with or without additive were measured by dynamic mechanical analysis (DMA)."}, "[4]": {"target": "T1, pseudocholine esterase from equine serum (PCE)", "assay": "Biostability: AFM-based step height change (ΔH) under enzymatic challenge", "description": "Various embodiments of the present application can be better understood by reference to the following Examples which are offered by way of illustration. The scope of the present application is not limited to the Examples given herein. The enzymatic challenge measurement method described herein is described in Wang X, Song S, Chen L, Stafford CM, Sun J, Acta Biomater., 2018, 74, 326, and Yamauchi S, Wang X, Egusa H, Sun J. “High-performance dental adhesives containing an ether-based monomer” Journal of Dental Research, 2020, 99, 189, which are both incorporated by reference herein in their entireties.\nBiostability of the dental materials such as resins and adhesives is of critical importance to their durability. These materials may break down in the oral environment, which may be due to enzymatic and/or bacterial challenges, which can result in failure of the restoration and secondary caries. The stability against enzymatic challenges of dental materials including adhesives and resins, with and without additives, was evaluated using an atomic force microscopy (AFM)-based method, described by Wang et al., in “Short-time dental resin biostability and kinetics of enzymatic degradation”, Acta Biomaterialia, Volume 74, 1 Jul. 2018, Pages 326-333, incorporated herein in its entirety. Briefly, this method allows evaluation of materials by assessing the step height (H) and the changes in the step height (ΔH), that are caused by enzymatic exposure. The ΔH values are caused as material exposed to salivary enzymes or the like is removed due to degradation of the exposed material.\nThe stability of SB was compared to the same adhesive incorporating Azo-QPS-C16 as an additive at approximately 0.25 wt %. Samples were prepared according to the method described by Wang, and were exposed to either pseudocholine esterase from equine serum (PCE, Product No. C7512, Sigma, Saint Louis, MO, USA) were reconstituted in saline solution containing 40 mM magnesium chloride and 99 mM of sodium chloride following vender's instruction, or a control solution without PCE for various times up to 72 hours. […] For the SB sample exposed to PCE, the ΔH value increased to about 175 nm. In comparison, the addition of approximately 0.25 wt % Azo-QPS-C16 reduced the ΔH values after 72 hours to about 50 nm and about 60 nm for the control and PCE-exposed samples, respectively, thus showing inclusion of Azo-QPC-C16 in the adhesive improved the stability dramatically.", "remark": "listed apart in the source"}, "[5]": {"conditions": "B6H4, approximately 0.25 wt % additive"}}}
{"smiles": "c1ccc(/N=N/c2ccccc2)cc1", "note": "[reference compound]", "values": [{"measurement": "change of Degree of Conversion (in words)", "setting": "[1]", "result": "No change"}]}
{"smiles": "C=C(C)C(=O)Oc1ccc(/N=N/c2cc[n+](CCCCCCCCCCCCCCCC)cc2)cc1.[Br-]", "note": "[Azo-QPS-C16, (E)-1-hexadecyl-4-((4-(methacryloyloxy)phenyl)diazenyl)-pyridinium bromide]", "values": [{"measurement": "DC (%)", "setting": "[1]; B6H4/CQ/4E, 0.1 wt % additive", "result": "76.9 ± 0.7", "unit": "%"}, {"measurement": "DC (%)", "setting": "[1]; B6H4/CQ/4E, 0.25 wt % additive", "result": "79.5 ± 0.8", "unit": "%"}, {"measurement": "DC (%)", "setting": "[1]; B6H4/CQ/4E, 0.5 wt % additive", "result": "80.5 ± 1.2", "unit": "%"}, {"measurement": "DC (%)", "setting": "[1]; B6H4/CQ/4E, 1.0 wt % additive", "result": "81.3 ± 1.4", "unit": "%"}, {"measurement": "DC (%)", "setting": "[1]; B6H4/CQ/4E, 1.25 wt % additive", "result": "76.2 ± 1.5", "unit": "%"}, {"measurement": "DC (%)", "setting": "[1]; B6H4/CQ/4E, 1.5 wt % additive", "result": "64.4 ± 2.2", "unit": "%"}, {"measurement": "DC (%)", "setting": "[1]; B6H4/CQ/4E, 2.0 wt % additive", "result": "26.0 ± 2.6", "unit": "%"}, {"measurement": "Degree of Conversion (%)", "setting": "[1]; EBSE adhesive", "result": "73.7 ± 0.6", "unit": "%"}, {"measurement": "Degree of Conversion (%)", "setting": "[1]; PBNT adhesive", "result": "66.4 ± 0.7", "unit": "%"}, {"measurement": "Degree of Conversion (%)", "setting": "[1]; SBP adhesive", "result": "70.3 ± 0.5", "unit": "%"}, {"measurement": "Degree of Conversion (%)", "setting": "[1]; SUP adhesive", "result": "72.5 ± 1.0", "unit": "%"}, {"measurement": "DC (%)", "setting": "[1]; Scotchbond Multi-Purpose (SB), 0.1 wt % additive", "result": "76.1 ± 0.8", "unit": "%"}, {"measurement": "DC (%)", "setting": "[1]; Scotchbond Multi-Purpose (SB), 0.25 wt % additive", "result": "78.6 ± 0.9", "unit": "%"}, {"measurement": "DC (%)", "setting": "[1]; Scotchbond Multi-Purpose (SB), 0.5 wt % additive", "result": "79.2 ± 1.1", "unit": "%"}, {"measurement": "DC (%)", "setting": "[1]; Scotchbond Multi-Purpose (SB), 1.0 wt % additive", "result": "79.5 ± 1.4", "unit": "%"}, {"measurement": "DC (%)", "setting": "[1]; Scotchbond Multi-Purpose (SB), 1.25 wt % additive", "result": "75.5 ± 1.5", "unit": "%"}, {"measurement": "DC (%)", "setting": "[1]; Scotchbond Multi-Purpose (SB), 1.5 wt % additive", "result": "55.0 ± 1.4", "unit": "%"}, {"measurement": "DC (%)", "setting": "[1]; Scotchbond Multi-Purpose (SB), 2.0 wt % additive", "result": "12.8 ± 3.1", "unit": "%"}, {"measurement": "Degree of Conversion (%)", "setting": "[1]; XIV adhesive", "result": "74.2 ± 1.1", "unit": "%"}, {"measurement": "effect on DC (in words)", "setting": "[1]; approximately 0.1 wt % additive", "result": "enhances the DC of both adhesives"}, {"measurement": "effect on DC (in words)", "setting": "[1]; more than approximately 1.25 wt % additive (about 1.5 or 2 wt %)", "result": "significant DC decrease"}, {"measurement": "Degree of Conversion", "setting": "[1]; 0.5 wt % additive", "result": 74.5, "unit": "%"}, {"measurement": "increase of Degree of Conversion", "setting": "[1]; 0.5 wt % additive", "result": 4.3, "unit": "%"}, {"measurement": "ΔH", "setting": "[2]; B6H4 with CQ/4E, approximately 0.25 wt % additive, control, after 72 hours", "result": "about 50 nm"}, {"measurement": "ΔH", "setting": "[2]; B6H4 with CQ/4E, approximately 0.25 wt % additive, exposed to PCE, after 72 hours", "result": "about 70 nm"}, {"measurement": "effect on ΔH values (in words)", "setting": "[2]; adhesives PBNT, SBP, SUP, EBSE and XIV, approximately 0.25 wt % additive versus no additive (FIGS. 8-12)", "result": "decreased the ΔH values"}, {"measurement": "glass transition temperature (Tg)", "setting": "[3]; [5]", "result": "increases"}, {"measurement": "tan δ peak", "setting": "[3]; [5]", "result": "narrowed"}, {"measurement": "tan δ peak", "setting": "[3]; SB, approximately 0.25 wt % additive", "result": "narrowed"}, {"measurement": "ΔH", "setting": "[4]; SB, approximately 0.25 wt % additive, PCE-exposed, after 72 hours", "result": "about 60 nm"}, {"measurement": "ΔH", "setting": "[4]; SB, approximately 0.25 wt % additive, control solution without PCE, after 72 hours", "result": "about 50 nm"}]}
{"smiles": "c1cc(CCc2ccncc2)ccn1", "note": "[reference compound]", "values": [{"measurement": "change of Degree of Conversion (in words)", "setting": "[1]", "result": "No change"}]}
{"smiles": "CC(C)C(=O)Oc1ccc(/N=N/c2cc[n+](CCCCCBr)cc2)cc1.[Br-]", "note": "[Br-C6-Azo-Py-iBu]", "values": [{"measurement": "Degree of Conversion", "setting": "[1]; 0.5 wt % additive", "result": 75.1, "unit": "%"}, {"measurement": "increase of Degree of Conversion", "setting": "[1]; 0.5 wt % additive", "result": 4.9, "unit": "%"}]}
{"smiles": "c1cc(N=Nc2ccncc2)ccn1", "note": "[reference compound]", "values": [{"measurement": "change of Degree of Conversion (in words)", "setting": "[1]", "result": "No change"}]}
{"smiles": "C=C(C)C(=O)Oc1ccc(/N=N/c2cc[n+](CC)cc2)cc1.[Br-]", "note": "[Azo-QPS-C2-MA]", "values": [{"measurement": "Degree of Conversion", "setting": "[1]; 0.5 wt % additive", "result": 72.3, "unit": "%"}, {"measurement": "increase of Degree of Conversion", "setting": "[1]; 0.5 wt % additive", "result": 2.1, "unit": "%"}]}
{"smiles": "C=C(C)C(=O)OCCCCCC[n+]1ccc(/N=N/c2ccc(OC(=O)C(C)C)cc2)cc1.[Br-]", "note": "[MA-C6-Azo-Py-iBu]", "values": [{"measurement": "Degree of Conversion", "setting": "[1]; 0.5 wt % additive", "result": 74.9, "unit": "%"}, {"measurement": "increase of Degree of Conversion", "setting": "[1]; 0.5 wt % additive", "result": 4.7, "unit": "%"}, {"measurement": "ΔH", "setting": "[2]; B6H4, approximately 0.25 wt % additive, PCE (FIG. 6)", "result": "~65", "unit": "nm"}, {"measurement": "ΔH", "setting": "[2]; B6H4, approximately 0.25 wt % additive, control (FIG. 6)", "result": "approximately 50 nm"}, {"measurement": "ΔH", "setting": "[4]; Scotchbond (SB), PCE (FIG. 7)", "result": "~70", "unit": "nm"}, {"measurement": "ΔH", "setting": "[4]; Scotchbond (SB), control (FIG. 7)", "result": "approximately 50 nm"}]}
{"smiles": "Oc1ccc(/N=N/c2ccncc2)cc1", "note": "[Azo-Py-OH, reference compound]", "values": [{"measurement": "Degree of Conversion", "setting": "[1]; 0.5 wt % additive", "result": 68.4, "unit": "%"}, {"measurement": "decrease of Degree of Conversion", "setting": "[1]", "result": 1.8, "unit": "%"}]}
{"smiles": "C=C(C)C(=O)OCCNC(=O)OCCCCCCCC[n+]1ccc(/N=N/c2ccc(OC(=O)C(C)C)cc2)cc1.[Br-]", "note": "[MA-CB13-Azo-QPS-iBu]", "values": [{"measurement": "Degree of Conversion", "setting": "[1]; 0.5 wt % additive", "result": 70.7, "unit": "%"}, {"measurement": "increase of Degree of Conversion", "setting": "[1]; 0.5 wt % additive", "result": 0.5, "unit": "%"}, {"measurement": "biostability of the adhesives (in words)", "setting": "[4]; added to dental adhesives", "result": "has not been demonstrated to improve the biostability"}]}
{"smiles": "C=C(C)C(=O)Oc1ccc(/N=N/c2ccncc2)cc1", "note": "[Azo-Py-MA, reference compound]", "values": [{"measurement": "Degree of Conversion", "setting": "[1]; 0.5 wt % additive", "result": 70.2, "unit": "%"}, {"measurement": "change of Degree of Conversion (in words)", "setting": "[1]", "result": "no change"}]}
{"smiles": "CC(C)C(=O)Oc1ccc(/N=N/c2ccncc2)cc1", "note": "[Azo-Py-iBu, (E)-4-(pyridin-4-yldiazenyl)phenyl isobutyrate, reference compound]", "values": [{"measurement": "Degree of Conversion", "setting": "[1]; 0.5 wt % additive", "result": 66.7, "unit": "%"}, {"measurement": "decrease of Degree of Conversion", "setting": "[1]", "result": 3.5, "unit": "%"}]}
